Measurements reported in ChEMBL document CHEMBL1123299, “New antiarrhythmic agents. 2,2,5,5-Tetramethyl-3-pyrroline-3-carboxamides and 2,2,5,5-tetramethylpyrrolidine-3-carboxamindes” (J Med Chem, 1986).

Assays:
[1] = Acute toxicity determined after intravenal administration in mice; type: organism-based; settings: mouse, in vivo, iv
[2] = tested on: Rattus norvegicus; experiment: Incidence of arrhythmias in rats after a intravenal administration at 4 mg/kg, expressed as no. of positive cases out of no. of tested cases (10); type: functional
[3] = species on record: Rattus norvegicus; experiment: Relative potency with reference to quinidine; type: functional
[4] = tested on: Rattus norvegicus; experiment: Effective dose against aconitine-induced arrhythmia after intravenal administration in anesthetized rats; type: functional

C/C=C/c1ccc(OC(C)C(=O)NCCCNC(=O)C2=CC(C)(C)NC2(C)C)c(OC)c1 (centres undefined)
LD50 [1]: 14 mg/kg
No. of positive cases [2]: 7
Relative potency [3]: 4.4

CC1(C)C=C(C(=O)NCCCNC(=O)C2CCCCC2C(=O)O)C(C)(C)N1 (centres undefined)
LD50 [1]: 753 mg/kg
No. of positive cases [2]: 0

C=CCc1ccc(OCC(=O)NCCCNC(=O)C2CC(C)(C)NC2(C)C)c(OC)c1 (centres undefined)
LD50 [1]: 38 mg/kg
No. of positive cases [2]: 0

Cc1cccc(C)c1NC(=O)C(C)NCCNC(=O)C1=CC(C)(C)NC1(C)C (centres undefined)
LD50 [1]: 39 mg/kg
No. of positive cases [2]: 4

CC1(C)C=C(C(=O)NCCCNC(=O)C(O)c2ccccc2)C(C)(C)N1 (centres undefined)
LD50 [1]: 52 mg/kg
No. of positive cases [2]: 1

CC1(C)C=C(C(=O)NCCN2C(=O)c3ccccc3C2=O)C(C)(C)N1
No. of positive cases [2]: 7
Relative potency [3]: 1.5

CC1(C)C=C(C(=O)NCCNC(=O)C2CC=CCC2C(=O)O)C(C)(C)N1 (centres undefined)
LD50 [1]: 1510 mg/kg
No. of positive cases [2]: 0

CC1(C)C=C(C(=O)NCc2ccncc2)C(C)(C)N1
LD50 [1]: 132 mg/kg
No. of positive cases [2]: 0

CC1(C)C=C(C(=O)NCCCNCc2ccccc2)C(C)(C)N1
No. of positive cases [2]: 9
Relative potency [3]: 3.3

COc1cc(CNCCNC(=O)C2=CC(C)(C)NC2(C)C)cc(OC)c1OC
LD50 [1]: 56 mg/kg
No. of positive cases [2]: 2

CC1(C)C=C(C(=O)NCCNCc2ccc(Cl)cc2)C(C)(C)N1
LD50 [1]: 82 mg/kg
ED150 [4]: 5.4 mg/kg
No. of positive cases [2]: 5
Relative potency [3]: 2.2

COc1cc(C(=O)NCCCNC(=O)C2=CC(C)(C)NC2(C)C)cc(OC)c1OC
No. of positive cases [2]: 5
Relative potency [3]: 0.97

COc1ccc(CNCCCNC(=O)C2=CC(C)(C)NC2(C)C)c(OC)c1
LD50 [1]: 16 mg/kg
ED150 [4]: 1.7 mg/kg
No. of positive cases [2]: 9
Relative potency [3]: 7

COc1cc(CNCCCNC(=O)C2=CC(C)(C)NC2(C)C)cc(OC)c1OC
LD50 [1]: 22 mg/kg
ED150 [4]: 3.8 mg/kg
No. of positive cases [2]: 9
Relative potency [3]: 3.1

CC1(C)C=C(C(=O)NCCCNC(=O)COc2ccc(Cl)cc2Cl)C(C)(C)N1
LD50 [1]: 20 mg/kg
No. of positive cases [2]: 5

CCc1nc2ccccc2c(=O)n1CCCNC(=O)C1CC(C)(C)NC1(C)C (centres undefined)
No. of positive cases [2]: 10
Relative potency [3]: 4.4

CC1(C)C=C(C(=O)NCCCNCc2ccc(Oc3ccccc3)cc2)C(C)(C)N1
LD50 [1]: 23 mg/kg
ED150 [4]: 1.3 mg/kg
No. of positive cases [2]: 10
Relative potency [3]: 9.2

Cc1nc2ccccc2c(=O)n1CC(O)CNC(=O)C1=CC(C)(C)NC1(C)C (centres undefined)
LD50 [1]: 73 mg/kg
No. of positive cases [2]: 4

COc1cc(OCc2ccccc2)ccc1CNCCCNC(=O)C1=CC(C)(C)NC1(C)C
LD50 [1]: 13 mg/kg
ED150 [4]: 0.69 mg/kg
No. of positive cases [2]: 10
Relative potency [3]: 17.2

CC1(C)C=C(C(=O)NCCCNCc2ccc(C(F)(F)F)cc2)C(C)(C)N1
LD50 [1]: 65 mg/kg
ED150 [4]: 4.8 mg/kg
No. of positive cases [2]: 7
Relative potency [3]: 2.5

CC1(C)C=C(C(=O)NCCCNC(=O)C(C)(C)Oc2ccc(Cl)cc2)C(C)(C)N1
LD50 [1]: 46 mg/kg
No. of positive cases [2]: 0

CC1(C)CC(C(=O)NCCCNCc2ccc(C(F)(F)F)cc2)C(C)(C)N1 (centres undefined)
No. of positive cases [2]: 9
Relative potency [3]: 4.1

CC1(C)C=C(C(=O)NCCCNCc2cccc(O)c2)C(C)(C)N1
LD50 [1]: 17 mg/kg
No. of positive cases [2]: 4

CC1(C)C=C(C(=O)NCCCNCc2ccccn2)C(C)(C)N1
LD50 [1]: 102 mg/kg
No. of positive cases [2]: 0

C/C=C/c1ccc(OCC(=O)NCCNC(=O)C2=CC(C)(C)NC2(C)C)c(OC)c1
LD50 [1]: 18 mg/kg
No. of positive cases [2]: 7
Relative potency [3]: 2.9

CC1(C)C=C(C(=O)NCCCNCc2ccsc2)C(C)(C)N1
No. of positive cases [2]: 9
Relative potency [3]: 2.2

CC1(C)C=C(C(=O)NCCNC(=O)COc2ccc(Cl)cc2Cl)C(C)(C)N1
LD50 [1]: 37 mg/kg
No. of positive cases [2]: 4

CC1(C)C=C(C(=O)NCCNC(=O)Cc2cccs2)C(C)(C)N1
LD50 [1]: 86 mg/kg
No. of positive cases [2]: 2

CC1(C)C=C(C(=O)NCCCCNCc2cccs2)C(C)(C)N1
No. of positive cases [2]: 10
Relative potency [3]: 2.5

Cc1cc(Cl)ccc1OCC(=O)NCCNC(=O)C1=CC(C)(C)NC1(C)C
LD50 [1]: 36 mg/kg
No. of positive cases [2]: 2

CC(NCCNC(=O)C1=CC(C)(C)NC1(C)C)c1cccs1 (centres undefined)
LD50 [1]: 53 mg/kg
No. of positive cases [2]: 2

CC1(C)CC(C(=O)NCCCNCc2cccs2)C(C)(C)N1 (centres undefined)
No. of positive cases [2]: 10
Relative potency [3]: 2.8

CC1(C)CC(C(=O)NCCCNCc2ccsc2)C(C)(C)N1 (centres undefined)
No. of positive cases [2]: 7
Relative potency [3]: 0.9

CC1(C)C=C(C(=O)NCCCNCc2ccc[nH]2)C(C)(C)N1
LD50 [1]: 20 mg/kg
No. of positive cases [2]: 4

CC1(C)C=C(C(=O)NCCNC(=O)c2cccs2)C(C)(C)N1
LD50 [1]: 93 mg/kg
No. of positive cases [2]: 3

CC1(C)C=C(C(=O)NCCNC(=O)c2ccccn2)C(C)(C)N1
LD50 [1]: 88 mg/kg
No. of positive cases [2]: 2

COc1ccc(CNC(=O)C2=CC(C)(C)NC2(C)C)cc1
LD50 [1]: 66 mg/kg
No. of positive cases [2]: 0

CC1(C)C=C(C(=O)NCc2ccccc2)C(C)(C)N1
LD50 [1]: 34 mg/kg
No. of positive cases [2]: 3

CC1(C)C=C(C(=O)NC(C(N)=O)c2ccccc2)C(C)(C)N1 (centres undefined)
LD50 [1]: 75 mg/kg
No. of positive cases [2]: 2

CC1(C)C=C(C(=O)NC(c2ccccc2)c2ccccc2)C(C)(C)N1
LD50 [1]: 63 mg/kg
No. of positive cases [2]: 5

CC1(C)C=C(C(=O)NCCCNC(=O)c2cccs2)C(C)(C)N1
LD50 [1]: 48 mg/kg
No. of positive cases [2]: 4

CCc1nc2ccccc2c(=O)n1CCNC(=O)C1=CC(C)(C)NC1(C)C
No. of positive cases [2]: 10
Relative potency [3]: 1.1

CC1(C)C=C(C(=O)NCCCNC(=O)CSc2ccccc2)C(C)(C)N1
ED150 [4]: 6.9 mg/kg
No. of positive cases [2]: 7
Relative potency [3]: 1.7

CC1(C)CC(C(=O)NCCCN2C(=O)c3ccccc3C2=O)C(C)(C)N1 (centres undefined)
No. of positive cases [2]: 10
Relative potency [3]: 2.6

CN(Cc1ccccc1)C(=O)C1=CC(C)(C)NC1(C)C
LD50 [1]: 51 mg/kg
No. of positive cases [2]: 1

CC1(C)C=C(C(=O)NCCCNC(=O)Cc2cccs2)C(C)(C)N1
No. of positive cases [2]: 8
Relative potency [3]: 3.8

Cc1nc2ccccc2c(=O)n1CCNC(=O)C1=CC(C)(C)NC1(C)C
No. of positive cases [2]: 4

CC1(C)C=C(C(=O)NCc2ccc(Cl)cc2)C(C)(C)N1
LD50 [1]: 49 mg/kg
No. of positive cases [2]: 0

CC1(C)C=C(C(=O)NCC(O)CNC(=O)C(C)(C)Oc2ccc(Cl)cc2)C(C)(C)N1 (centres undefined)
LD50 [1]: 69 mg/kg
No. of positive cases [2]: 0

CC(=O)Nc1ccc(CNCCCNC(=O)C2=CC(C)(C)NC2(C)C)cc1
LD50 [1]: 23 mg/kg
No. of positive cases [2]: 2

CC1(C)C=C(C(=O)NCCCNC(=O)c2ccccc2C(=O)O)C(C)(C)N1
No. of positive cases [2]: 0

COc1ccc(CCNC(=O)C2=CC(C)(C)NC2(C)C)cc1OC
LD50 [1]: 123 mg/kg
No. of positive cases [2]: 0

CC(=O)Nc1ccc(CNCCNC(=O)C2=CC(C)(C)NC2(C)C)cc1
LD50 [1]: 25 mg/kg
No. of positive cases [2]: 2

COc1ccc(CNCCNC(=O)C2=CC(C)(C)NC2(C)C)cc1OC
LD50 [1]: 61 mg/kg
No. of positive cases [2]: 2

Cc1nc2ccccc2c(=O)n1CCCNC(=O)C1CC(C)(C)NC1(C)C (centres undefined)
LD50 [1]: 53 mg/kg
No. of positive cases [2]: 3

Cc1cc(Cl)ccc1OCC(=O)NCCCNC(=O)C1=CC(C)(C)NC1(C)C
LD50 [1]: 30 mg/kg
No. of positive cases [2]: 3

CC(CNC(=O)C1=CC(C)(C)NC1(C)C)NCc1cccs1 (centres undefined)
LD50 [1]: 68 mg/kg
No. of positive cases [2]: 4

CC1(C)C=C(C(=O)NCCNC(=O)C(C)(C)Oc2ccc(Cl)cc2)C(C)(C)N1
LD50 [1]: 47 mg/kg
No. of positive cases [2]: 0

CC1(C)C=C(C(=O)NCCCNCc2ccco2)C(C)(C)N1
LD50 [1]: 34 mg/kg
No. of positive cases [2]: 0

CC1(C)C=C(C(=O)NCCCN2C(=O)C3CCCCC3C2=O)C(C)(C)N1 (centres undefined)
LD50 [1]: 106 mg/kg
No. of positive cases [2]: 0

CC1(C)C=C(C(=O)NCCCNC(=O)c2ccc3c(c2)OCO3)C(C)(C)N1
LD50 [1]: 76 mg/kg
No. of positive cases [2]: 4

CC1(C)C=C(C(=O)NCCCN2C(=O)C3CC=CCC3C2=O)C(C)(C)N1 (centres undefined)
No. of positive cases [2]: 2

CC1(C)C=C(C(=O)NCCN2C(=O)C3CCCCC3C2=O)C(C)(C)N1 (centres undefined)
LD50 [1]: 128 mg/kg
No. of positive cases [2]: 0

CC1(C)C=C(C(=O)NCCCNC(=O)C2CC=CCC2C(=O)O)C(C)(C)N1 (centres undefined)
LD50 [1]: 344 mg/kg
No. of positive cases [2]: 0

CC1(C)C=C(C(=O)NCC(O)CN2C(=O)c3ccccc3C2=O)C(C)(C)N1 (centres undefined)
No. of positive cases [2]: 10
Relative potency [3]: 3.9

CC1(C)C=C(C(=O)NCCCNC(=O)Cc2ccccc2)C(C)(C)N1
LD50 [1]: 54 mg/kg
No. of positive cases [2]: 6

CC1(C)C=C(C(=O)NCCNCc2cccs2)C(C)(C)N1
LD50 [1]: 123 mg/kg
No. of positive cases [2]: 3

CC1(C)C=C(C(=O)NCCCNCc2ccncc2)C(C)(C)N1
LD50 [1]: 94 mg/kg
No. of positive cases [2]: 0

CC1(C)C=C(C(=O)NCCN2C(=O)C3CC=CCC3C2=O)C(C)(C)N1 (centres undefined)
LD50 [1]: 182 mg/kg
No. of positive cases [2]: 0

CC1(C)C=C(C(=O)NCCNC(=O)C2CCCCC2C(=O)O)C(C)(C)N1 (centres undefined)
LD50 [1]: 1130 mg/kg
No. of positive cases [2]: 0

Cc1nc2ccccc2c(=O)n1CCCNC(=O)C1=CC(C)(C)NC1(C)C
No. of positive cases [2]: 10
Relative potency [3]: 2.6

CC1(C)C=C(C(=O)NCCNC(=O)c2ccc3c(c2)OCO3)C(C)(C)N1
LD50 [1]: 95 mg/kg
No. of positive cases [2]: 2

CC1(C)C=C(C(=O)NCC(C)(C)NCc2cccs2)C(C)(C)N1
LD50 [1]: 49 mg/kg
No. of positive cases [2]: 1

CC1(C)C=C(C(=O)NCCNC(=O)c2ccccc2C(=O)O)C(C)(C)N1
LD50 [1]: 357 mg/kg
No. of positive cases [2]: 0

CC1(C)C=C(C(=O)NCCNC(=O)C(O)c2ccccc2)C(C)(C)N1 (centres undefined)
LD50 [1]: 85 mg/kg
No. of positive cases [2]: 0

CC1(C)C=C(C(=O)NCCCCNC(=O)c2cccs2)C(C)(C)N1
LD50 [1]: 37 mg/kg
No. of positive cases [2]: 6
